Literature values, collected in PMC8148172, “Evaluation of a Keratin 1 Targeting Peptide-Doxorubicin Conjugate in a Mouse Model of Triple-Negative Breast Cancer” (Pharmaceutics, 2021).

Assays:
TNBC = system: TNBC; design: method as in PMID 28520410
[1] = design: method as in PMID 27370248, PMID 16515518; details: as conjugate with circulating albumin

Compound	targeting of TNBC relative to linear 18-4 peptide (TNBC)	greater doses of Dox administered with minimal cardiotoxicity [1]
N- to C-terminal cyclized WXEAAYQkFL [cyclic analogue of 18-4]	2–3 fold	
COc1cccc2c1C(=O)c1c(O)c3c(c(O)c1C2=O)C[C@@](O)(/C(CO)=N/NC(=O)CCCCCN1C(=O)C=CC1=O)C[C@@H]3O[C@H]1C[C@H](N)[C@H](O)[C@H](C)O1 [Aldox, aldoxorubicin]		3–4 ×
